Test results as given in patent US5972958A, “4-aminoalkoxy-1,3-dihydro-benzoimidazol-2-thiones” (American Home Products Corporation, priority 1998, dated 1999).

Tests used:
[1] = target: T1, dopamine D2 receptor (Rattus norvegicus, UniProt P61169); test: Affinity for the dopamine autoreceptor, 3H-quinpirole (D2 Quin.) binding in homogenized rat striatal brain tissue; set-up: homogenized rat striatal brain tissue; from tissue; host or cells: rat striatal brain tissue (homogenate); conditions: high-affinity agonist state
Method: Affinity for the dopamine autoreceptor was established by a modification of the standard experimental test procedure of Seemen and Schaus, European Journal of Pharmacology 203: 105-109, 1991, wherein homogenized rat striatal brain tissue is incubated with ^3 H-quinpirole (Quin.) and various concentrations of test compound, filtered and washed and counted in a Betaplate scintillation counter.

[2] = target: T1, dopamine D2 receptor; test: Affinity for the dopamine D-2 receptor, 3H-spiroperidol (D2 Spiper) binding in homogenized limbic brain tissue; set-up: homogenized limbic brain tissue; from tissue; host or cells: limbic brain tissue (homogenate); conditions: low-affinity agonist state
Method: High affinity for the dopamine D-2 receptor was established by the standard experimental test procedure of Fields, et al., Brain Res., 136, 578 (1977) and Yamamura et al., eds., Neurotransmitter Receptor Binding, Raven Press, N.Y. (1978) wherein homogenized limbic brain tissue is incubated with ^3 H-spiroperidol (Spiper.) and various concentrations of test compound, filtered and washed and shaken with Hydrofluor scintillation cocktail (National Diagnostics) and counted in a Packard 460 CD scintillation counter.

T1 sequence (P61169 whole entry): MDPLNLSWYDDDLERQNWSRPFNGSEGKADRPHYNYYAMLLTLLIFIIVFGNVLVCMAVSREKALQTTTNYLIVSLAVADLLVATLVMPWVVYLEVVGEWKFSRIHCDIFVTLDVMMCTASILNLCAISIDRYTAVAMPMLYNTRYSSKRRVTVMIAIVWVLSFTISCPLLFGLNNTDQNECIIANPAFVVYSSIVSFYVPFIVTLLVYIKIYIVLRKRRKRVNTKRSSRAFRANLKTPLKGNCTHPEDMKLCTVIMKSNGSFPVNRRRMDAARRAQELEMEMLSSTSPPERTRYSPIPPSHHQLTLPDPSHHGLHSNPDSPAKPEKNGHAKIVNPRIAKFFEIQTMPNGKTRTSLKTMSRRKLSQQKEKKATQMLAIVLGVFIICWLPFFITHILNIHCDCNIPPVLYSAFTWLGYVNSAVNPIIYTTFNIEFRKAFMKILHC

IC50 [1]	IC50 [2]	Compound
0.18 nM	85 nM	S=c1[nH]c2cc(Cl)cc(OCCNCc3ccsc3)c2[nH]1 [Example 9, 6-Chloro-4-{2-[(thiophen-3-ylmethyl)-amino]-ethoxy}-1,3-dihydro-benzoimidazole-2-thione]
0.21 nM	88 nM	S=c1[nH]c2cccc(OCCNCc3ccc(Cl)cc3)c2[nH]1 [Example 6, 4-[2-(4-Chloro-benzylamino)-ethoxy]-1,3-dihydro-benzoimidazole-2-thione]
0.37 nM	88 nM	S=c1[nH]c2cc(Cl)cc(OCCNCc3cccs3)c2[nH]1 [Example 8, 6-Chloro-4-{2-[(thiophen-2-ylmethyl)-amino]-ethoxy}-1,3-dihydro-benzoimidazole-2-thione]

More lines, now with the values behind:

Compound	IC50 [1]	IC50 [2]
CC(C)(C)c1ccc(CNCCOc2cccc3[nH]c(=S)[nH]c23)cc1 [Example 5, 4-[2-(4-tert-Butyl-benzylamino)-ethoxy]-1,3-dihydro-benzoimidazole-2-thione]	0.82 nM	6.87 nM
S=c1[nH]c2cccc(OCCN3CCc4ccccc4C3)c2[nH]1 [Example 10, 4-[2-(3,4-Dihydro-1H-isoquinolin-2-yl)-ethoxy]-1,3-dihydro-benzoimidazole-2-thione]	2.67 nM	234 nM
S=c1[nH]c2cccc(OCCNCc3ccccc3)c2[nH]1 [Example 1, 4-(2-Benzylamino-ethoxy)-1,3-dihydro-benzoimidazol-2-thione]	0.36 nM	33.4 nM
S=c1[nH]c2cccc(OCCNCc3cccc4ccccc34)c2[nH]1 [Example 4, 4-{2-[(Naphthalen-1-ylmethyl)-amino]-ethoxy}-1,3-dihydro-benzoimidazole-2-thione]	0.43 nM	36.9 nM
Cc1ccc(CNCCOc2cccc3[nH]c(=S)[nH]c23)cc1 [Example 2, 4-[2-(4-Methyl-benzylamino)-ethoxy]-1,3-dihydro-benzoimidazole-2-thione]	0.42 nM	37.7 nM
Sc1nc2c(OCCNCc3ccccc3)cc(Cl)cc2[nH]1 [Example 7, 4-(2-Benzylamino-ethoxy)-6-chloro-1,3-dihydro-benzoimidazole-2-thione]	0.39 nM	57 nM
S=c1[nH]c2cccc(OCCCNCc3ccccc3)c2[nH]1 [Example 3]	14.9 nM	1190 nM
